14 compounds from ChEMBL document CHEMBL2150847, “Scaffold hopping strategy toward original pyrazolines as selective CB₂ receptor ligands” (Eur J Med Chem, 2012) can be followed below.

The target in assay [1] is T1, Cannabinoid receptor 2 (Homo sapiens, UniProt P34972). Nature of the assay: Displacement of [3H]CP55940 from human CB2 receptor expressed in CHO cell membranes after 1 hr by scintillation counting.
Assay [2] has as its target Cannabinoid receptor 1 (Homo sapiens, UniProt P21554). Nature of the assay: Displacement of [3H]CP55940 from human CB1 receptor expressed in CHO cell membranes after 1 hr by scintillation counting. (In general: Displacement assays read how much labelled ligand stays bound in the presence of the test substance.)
The species named for assay [3] is Homo sapiens. Nature of the assay: Selectivity ratio of Ki for human CB1 receptor to Ki for human CB2 receptor.
The target of assay [4] is T1, Cannabinoid receptor 2. Nature of the assay: Agonist activity at human CB2 receptor expressed in CHO cell membranes after 1 hr by [35S]GTPgammaS binding assay relative to baseline. The assay is classed as functional.
For assay [5], the target named is T1, Cannabinoid receptor 2. The assay can be described thus: Agonist activity at human CB2 receptor expressed in CHO cell membranes after 1 hr by [35S]GTPgammaS binding assay. The assay is classed as functional. On the technique in general: GTPγS resists hydrolysis and so accumulates on activated G proteins.
The target in assay [6] is T1, Cannabinoid receptor 2. Nature of the assay: Antagonist activity at human CB2 receptor expressed in CHO cell membranes after 1 hr by [35S]GTPgammaS binding assay. It is filed as functional.

SMILES strings stand for the structures. pEC50, pKi: −log10 of the molar value. The source made the active and inactive calls. The rule behind the calls is not given here.

T1 sequence (P34972 whole entry): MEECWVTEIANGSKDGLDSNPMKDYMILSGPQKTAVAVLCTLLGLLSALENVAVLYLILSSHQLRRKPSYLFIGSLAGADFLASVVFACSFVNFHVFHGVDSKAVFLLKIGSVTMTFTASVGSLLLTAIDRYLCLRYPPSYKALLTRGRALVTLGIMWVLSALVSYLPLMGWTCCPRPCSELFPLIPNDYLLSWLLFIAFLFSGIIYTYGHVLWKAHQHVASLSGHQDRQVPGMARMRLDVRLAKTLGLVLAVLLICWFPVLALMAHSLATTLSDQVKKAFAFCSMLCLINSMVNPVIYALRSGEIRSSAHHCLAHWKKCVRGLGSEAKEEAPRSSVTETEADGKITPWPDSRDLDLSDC
Chain of Cannabinoid receptor 1 (P21554 whole entry): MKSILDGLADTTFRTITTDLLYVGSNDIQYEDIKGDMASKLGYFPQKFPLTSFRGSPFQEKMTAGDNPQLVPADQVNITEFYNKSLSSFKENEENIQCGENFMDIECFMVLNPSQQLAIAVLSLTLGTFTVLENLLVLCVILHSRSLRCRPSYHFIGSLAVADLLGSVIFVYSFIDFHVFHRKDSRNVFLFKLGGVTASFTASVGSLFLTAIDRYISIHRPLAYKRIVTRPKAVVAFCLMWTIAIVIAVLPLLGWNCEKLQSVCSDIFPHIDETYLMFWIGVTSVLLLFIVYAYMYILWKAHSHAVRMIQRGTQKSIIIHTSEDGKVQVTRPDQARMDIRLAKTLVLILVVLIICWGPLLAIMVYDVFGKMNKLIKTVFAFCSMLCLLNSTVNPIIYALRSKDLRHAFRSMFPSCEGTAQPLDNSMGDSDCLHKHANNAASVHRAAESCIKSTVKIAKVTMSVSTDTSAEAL

The term pKi denotes the negative decadic logarithm of the Ki, by convention in mol/L. Read a high pKi as a low Ki. Consider `Cc1ccc(CC2CN(C(=O)Nc3ccccc3)N=C2c2ccc(Cl)c(C)c2)cc1` (configuration not stated), for which the pKi in assay [1] is less than 6.00; in assay [2] it was less than 5.52.
The corresponding values for `Cc1cc(C2=NN(C(=O)NC3CCCCC3)CC2Cc2ccccc2)ccc1Cl` (configuration not stated) are less than 6.00 and less than 5.52.
In general, Emax refers to the greatest response seen or fitted, relative to the assay's reference. The pEC50 is −log10 of the EC50, conventionally taken in molar units. A high value points to a low EC50. On to `Cc1cc(C2=NN(C(=O)NC3C4(C)CCC(C4)C3(C)C)CC2Cc2ccccc2)ccc1Cl` (configuration not stated), for which, in assay [3], the Ratio Ki was more than 4. This compound had a maximum response (Emax) in assay [4] of 183%. In addition, the negative-log EC50 (pEC50) in assay [5] was 6.13. Besides, the pKi in assay [1] was 6.16; in assay [2] it was less than 6.00.
For the compound `O=C(NC1CCCCC1)N1CC(Cc2ccccc2)C(c2ccc(Cl)cc2)=N1` (configuration not stated), the negative-log Ki (pKi) in assay [1] and in assay [2] was less than 5.52 in each case.
For `Cc1cccc(C2=NN(C(=O)Nc3ccccc3)CC2Cc2ccccc2)c1` (configuration not stated), the pKi in assay [1] and in assay [2] was less than 5.52 in each case.
With `O=C(Nc1ccccc1)N1CC(Cc2ccccc2)C(c2ccc(Cl)cc2)=N1` (configuration not stated), the pKi in assay [1] and in assay [2] was less than 5.52 throughout.
As for `Cc1cc(C2=NN(C(=O)Nc3ccccc3)CC2Cc2ccccc2)ccc1Cl` (configuration not stated), the negative logarithm of the Ki (pKi) in assay [1] and in assay [2] was less than 5.52 throughout.
Turning to `CC(=O)N1CC(Cc2ccccc2)C(c2ccccc2)=N1` (configuration not stated), the negative-log Ki (pKi) in assay [1] and in assay [2] was less than 5.52 in each case.
With `Cc1ccc(CC2CN(C(=O)NC3CCCCC3)N=C2c2ccc(Cl)c(C)c2)cc1` (configuration not stated), in assay [3], the Ratio Ki is more than 8. In assay [4], the Emax was found to be 187%. For the same compound, the pEC50 in assay [5] is 6.43. Moreover, the pKi is 6.41 in assay [1] and less than 5.52 in assay [2].
The corresponding values for `O=C(NC1CCCCC1)N1CC(Cc2ccccc2)C(c2ccccc2)=N1` (configuration not stated) are more than 6, 136%, 6.53, 6.30 and less than 5.52.
With `Cc1cccc(C2=NN(C(=O)NC3CCCCC3)CC2Cc2ccccc2)c1` (configuration not stated), the negative logarithm of the Ki (pKi) in assay [1] and in assay [2] was less than 5.52 throughout.
On to `Cc1cc(C2=NN(C(=O)NC3CCCCC3)CC2C2CCCC2)ccc1Cl` (configuration not stated), for which the Ratio Ki in assay [3] was determined as 1.2. Also, the values for the negative logarithm of the Ki (pKi) in assay [1] and in assay [2] were 5.44 and less than 5.52, respectively. Also, the outcome in assay [6] was Active.
As to `Cc1ccc(CC2CN(C(=O)NC3C4(C)CCC(C4)C3(C)C)N=C2c2ccc(Cl)c(C)c2)cc1` (configuration not stated), the Ratio Ki in assay [3] is more than 4. In assay [4], the Emax worked out at 163%. Further, the negative logarithm of the EC50 (pEC50) in assay [5] is 6.72. The pKi was 6.60 in assay [1] and less than 6.00 in assay [2].
In the case of `O=C(Nc1ccccc1)N1CC(Cc2ccccc2)C(c2ccccc2)=N1` (configuration not stated), the pKi in assay [1] and in assay [2] was less than 5.52 each time.
